Assay results: US20220251052A1, “IMPROVED PROCESS FOR THE PREPARATION OF 2-(3,5-DICHLOROPHENYL)-1,3-BENZOXAZOLE-6-CARBOXYLIC ACID OR ITS PHARMACEUTICALLY ACCEPTABLE SALTS AND POLYMORPHS THEREOF” (MSN LABORATORIES PRIVATE LIMITED, R&D CENTER, priority 2019, published 2022)

Assay: Solid-state stability of the crystalline form under stress conditions
Assay type: physicochemical
Details: 60±5° C. for 24 hours; 10 tons of pressure; UV light at 254nm for 24 hours; 75±5% relative humidity for 24 hours
Procedure: In third aspect of third embodiment, crystalline Form-R of Tafamidis of formula (I) is stable under stress conditions at 60±5° C. for 24 hours, 10 tons of pressure, under UV light at 254nm for 24 hours and higher humidity conditions of 75±5% relative humidity for 24 hours.

O=C(O)c1ccc2nc(-c3cc(Cl)cc(Cl)c3)oc2c1 [Form-R, 2-(3,5-dichlorophenyl)-1,3-benzoxazole-6-carboxylic acid]
polymorphic stability under stress conditions (does not convert to any other polymorphic form): stable
